The values that follow come from patent US12622890B2, “Use of the active compound in the prevention or treatment of ovarian dysfunction diseases” (INSTITUTE OF BIOPHYSICS, CHINESE ACADEMY OF SCIENCES, priority 2022, dated 2026).

The nature of the test: Body weight of POI model mice before modeling, after modeling and after treatment. The test is classed as in vivo. To be noted: for Body weight before modeling: D 0, 100 mg/kg/d oral; for Body weight after modeling: D 7, 100 mg/kg/d oral; for Body weight after treatment: D 13, 100 mg/kg/d oral. As for the experimental part:
Animal model establishment: A total of 34 C57 female mice (8-week-old) were selected and intraperitoneally injected with the ratio of 120 mg/kg cyclophosphamide (SIGMA) and 30 mg/kg Busulfan (Aladdin) once a day for 1 week at the dose of 0.1 mL/10 g to establish the model of POI.
Grouping: 34 POI model mice were randomly divided into four groups: sodium fumarate (SF) treatment group (n=9), hyodeoxycholic acid (HDCA) treatment group (n=8), sodium fumarate plus hyodeoxycholic acid (mass ratio 1:1) combination (SF+HDCA) treatment group (n=8) and normal saline (Vehicle) group (n=9). Mice in the SF group were given oral administration of SF at the ratio of 100 mg/kg/d body weight, mice in the HDCA group were given oral administration of HDCA at the ratio of 100 mg/kg/d body weight, and mice in the combination group were given oral administration of SF and HDCA at the ratio of 100 mg/kg/d body weight. SF and HDCA were dissolved with 0.9% normal saline when used. Mice in the vehicle group were given the same amount of normal saline orally. All the mice were treated consecutively for 12 days.
Body weight were recorded at three time points, before modeling (at the beginning of treatment), after modeling and after treatment.
Animal model establishment: A total of 24 C57 mice (8-week-old) were selected and intraperitoneally injected with the ratio of 120 mg/kg cyclophosphamide and 30 mg/kg Busulfan once a day for 1 week at the dose of 0.1 mL/10 g to establish the model of POI.
Grouping: 24 POI model mice were randomly divided into four groups: dimethyl fumarate (DMF) treatment group (n=5), hyodeoxycholic acid (HDCA) treatment group (n=6), dimethyl fumarate plus hyodeoxycholic acid (mass ratio=1:1) combination (DMF+HDCA) treatment group (n=7) and normal saline (Vehicle) group (n=6). Mice in the DMF treatment group were orally administrated at the ratio of 100 mg/kg/d body weight. Mice in the HDCA treatment group were given oral administration of HDCA at the ratio of 100 mg/kg/d body weight, and mice in the combination group were given oral administration of DMF and HDCA at the ratio of 100 mg/kg/d body weight. Once daily, DMF and HDCA were dissolved in 0.9% normal saline when used. Mice in normal saline group were given the same amount of normal saline orally every day. The drug was administered for 12 days.
Body weight were recorded at three time points, before modeling (at the beginning of treatment, the 0th day), after modeling (the 7th day) and after treatment (the 13th day).
The body weight of POI model mice of each group was measured before modeling, after modeling and after treatment.

Turning to `C[C@H](CCC(=O)O)[C@H]1CC[C@H]2[C@@H]3C[C@H](O)[C@@H]4C[C@H](O)CC[C@]4(C)[C@H]3CC[C@]12C` [HDCA, hyodeoxycholic acid, reference compound], for the setting “Example 1 POI mice”, the “Body weight before modeling” value came to 18.79 ± 0.80 g, the “Body weight after modeling” value is listed as 17.69 ± 1.03 g and the “Body weight after treatment” value was 17.96 ± 1.20 g. Besides, the “Weight recovery after chemotherapy” value (Example 1 POI mice, FIG. 2A) was “significantly beneficial”. Besides, under “Example 2 POI mice”, the “Body weight before modeling” value was found to be 18.32 ± 1.61 g, the “Body weight after modeling” value was found to be 16.31 ± 2.02 g and the “Body weight after treatment” value is given as 17.10 ± 2.24 g. Besides, the “Weight recovery after chemotherapy” value (Example 2 POI mice, FIG. 2B) is listed as “significantly beneficial”.
